“And” between values parts separate entries of the source, which are not always exact repeats. Identical values can stand only once. Toxic doses and inconclusive results are not listed. The calls were made as follows: active = survival T/C of 150% or more; inactive = T/C below 125% in these data.
System: P388 leukemia ip, CD2F1 mice, survival T/C
Test: NCI In Vivo Anticancer Drug Screen. Data for tumor model P388 Leukemia (intraperitoneal) in CD2F1 (CDF1) mice
Details: endpoint: median survival time, higher = longer survival
Procedure, shortened: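 Mice carrying the transplanted tumor received test compound or vehicle. Survival was recorded in each group, and the value is the treated-group measurement divided by that of the vehicle-treated control group.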

[1] = dose: 50.0 mg/kg/injection, schedule: Q01DX005 (ip), vehicle: saline with Tween-80
[2] = dose: 100.0 mg/kg/injection, schedule: Q01DX005 (ip), vehicle: saline with Tween-80
[3] = dose: 200.0 mg/kg/injection, schedule: Q01DX005 (ip), vehicle: saline with Tween-80
[4] = dose: 100.0 mg/kg/injection, schedule: Q04DX002 (ip), vehicle: saline with Tween-80
[5] = dose: 400.0 mg/kg/injection, schedule: Q04DX002 (ip), vehicle: saline with Tween-80
[6] = dose: 60.0 mg/kg/injection, schedule: Q01DX005 (ip), vehicle: Klucel (hydroxypropylcellulose) (HPC)
[7] = dose: 120.0 mg/kg/injection, schedule: Q01DX005 (ip), vehicle: Klucel (hydroxypropylcellulose) (HPC)
[8] = dose: 240.0 mg/kg/injection, schedule: Q01DX005 (ip), vehicle: Klucel (hydroxypropylcellulose) (HPC)
[9] = dose: 60.0 mg/kg/injection, schedule: Q01DX005 (ip), vehicle: saline with Tween-80
[10] = dose: 120.0 mg/kg/injection, schedule: Q01DX005 (ip), vehicle: saline with Tween-80
[11] = dose: 240.0 mg/kg/injection, schedule: Q01DX005 (ip), vehicle: saline with Tween-80
[12] = dose: 12.5 mg/kg/injection, schedule: Q01DX009 (ip), vehicle: other
[13] = dose: 25.0 mg/kg/injection, schedule: Q01DX009 (ip), vehicle: other
[14] = dose: 50.0 mg/kg/injection, schedule: Q01DX009 (ip), vehicle: other
[15] = dose: 100.0 mg/kg/injection, schedule: Q01DX009 (ip), vehicle: other
[16] = dose: 200.0 mg/kg/injection, schedule: Q01DX009 (ip), vehicle: other

Measured: T/C

O=C(NC(=S)c1ccc(Br)cc1)NS(=O)(=O)c1ccc(Cl)cc1
inactive: dose: 100.0 mg/kg/injection, schedule: Q01DX001 (ip), vehicle: saline with Tween-80 96 % of control | dose: 200.0 mg/kg/injection, schedule: Q01DX001 (ip), vehicle: saline with Tween-80 92 % of control | dose: 400.0 mg/kg/injection, schedule: Q01DX001 (ip), vehicle: saline with Tween-80 102 % of control

CCN=Cc1c(O)c(O)c(C(C)C)c2cc(C)c(-c3c(C)cc4c(C(C)C)c(O)c(O)c(C=NCC)c4c3O)c(O)c12
inactive: [1] 86 % of control | [2] 86 % of control | [3] 104 % of control

Cc1ccc(-c2csc(=NCCc3ccccc3)n2-c2ccc(C)cc2)cc1
inactive: dose: 12.5 mg/kg/injection, schedule: Q04DX002 (ip), vehicle: saline with Tween-80 97 % of control | dose: 25.0 mg/kg/injection, schedule: Q04DX002 (ip), vehicle: saline with Tween-80 99 % of control | dose: 50.0 mg/kg/injection, schedule: Q04DX002 (ip), vehicle: saline with Tween-80 88 % of control | [4] 88 % of control | [5] 93 % of control

COc1ccc(S(=O)(=O)N/N=C\c2cc([N+](=O)[O-])ccc2O)cc1OC
inactive: [1] 109 % of control | [2] 109 % of control | [3] 100 % of control

N#CC(O)Cc1ccccc1 (configuration not stated)
inactive: dose: 2.5 mg/kg/injection, schedule: Q04DX003 (ip), vehicle: other 110 % of control | dose: 5.0 mg/kg/injection, schedule: Q04DX003 (ip), vehicle: other 105 % of control | dose: 10.0 mg/kg/injection, schedule: Q04DX003 (ip), vehicle: other 105 % of control

[CH3][Ge]1([CH3])[CH2]C(c2ccccc2)=C(c2ccccc2)[CH2]1
inactive: [6] 99 % of control | [7] 94 % of control | [8] 90 % of control

CCOC(=O)C(Cc1ccc(O)cc1)NC(=O)C(CCCCN)N(C(=O)OCc1ccccc1)C(=O)OCc1ccccc1 (configuration not stated)
inactive: [1] 96 % of control | [2] 94 % of control | [3] 92 % of control

O=C1CSC(=S)N1c1ccc(Cl)c(C(F)(F)F)c1
inactive: dose: 50.0 mg/kg/injection, schedule: Q01DX009 (ip), vehicle: suspension in saline 108 % of control | dose: 100.0 mg/kg/injection, schedule: Q01DX009 (ip), vehicle: suspension in saline 101 % of control | dose: 200.0 mg/kg/injection, schedule: Q01DX009 (ip), vehicle: suspension in saline 104 % of control

COC1OCN(C(C)(C)C)CC1(C)C (configuration not stated)
inactive: dose: 15.0 mg/kg/injection, schedule: Q01DX009 (ip), vehicle: saline with Tween-80 95 % of control | dose: 30.0 mg/kg/injection, schedule: Q01DX009 (ip), vehicle: saline with Tween-80 102 % of control | dose: 60.0 mg/kg/injection, schedule: Q01DX009 (ip), vehicle: saline with Tween-80 121 % of control

Cc1cc(=O)[nH]c2cc3oc4ccccc4c3cc12
inactive: [9] 98 % of control | [10] 102 % of control | [11] 103 % of control

CC(C)(C)OC(=O)NNS(=O)(=O)CCC(N)C(=O)O (configuration not stated)
inactive: [12] 106 % of control | [13] 106 % of control | [14] 97 % of control | [15] 97 % of control | [16] 100 % of control

CCC1(CC)SC(C)(C)N(C=O)C1C(=O)O (configuration not stated)
inactive: [4] 99 % of control | dose: 200.0 mg/kg/injection, schedule: Q04DX002 (ip), vehicle: saline with Tween-80 104 % of control | [5] 100 % of control

C=C1C(=C)C2OC1c1cc3c(cc12)C(=O)C=CC3=O
inactive: dose: 12.5 mg/kg/injection, schedule: Q01DX005 (ip), vehicle: saline with Tween-80 100 % of control | dose: 25.0 mg/kg/injection, schedule: Q01DX005 (ip), vehicle: saline with Tween-80 91 % of control

O=c1nc2n(CC(O)CN3CCCCC3)c3cc(Cl)ccc3nc-2c(=O)[nH]1 (configuration not stated)
inactive: dose: 6.25 mg/kg/injection, schedule: Q01DX005 (ip), vehicle: saline 103 % of control | dose: 12.5 mg/kg/injection, schedule: Q01DX005 (ip), vehicle: saline 106 % of control

CN1C(=O)N(C)C2(C(=O)N(C)C(=O)N2C)N(C)C1=O
inactive: [6] 99 % of control and 102 % of control | [7] 96 % of control | [8] 98 % of control and 105 % of control

COC(=O)C(=O)C1CSC2=C(CS(=O)(=O)c3ccccc32)C1=O (configuration not stated)
inactive: [9] 98 % of control | [10] 104 % of control | [11] 104 % of control

C/C(=N\NC(=S)Nc1nccs1)c1ccccn1
inactive: dose: 100.0 mg/kg/injection, schedule: Q04DX003 (ip), vehicle: Klucel (hydroxypropylcellulose) (HPC) 99 % of control | dose: 200.0 mg/kg/injection, schedule: Q04DX003 (ip), vehicle: Klucel (hydroxypropylcellulose) (HPC) 105 % of control | dose: 400.0 mg/kg/injection, schedule: Q04DX003 (ip), vehicle: Klucel (hydroxypropylcellulose) (HPC) 96 % of control

C[n+]1ccc(/C(C#N)=N/O)cc1
inactive: dose: 50.0 mg/kg/injection, schedule: Q01DX009 (ip), vehicle: Klucel (hydroxypropylcellulose) (HPC) 119 % of control | dose: 100.0 mg/kg/injection, schedule: Q01DX009 (ip), vehicle: Klucel (hydroxypropylcellulose) (HPC) 110 % of control | dose: 200.0 mg/kg/injection, schedule: Q01DX009 (ip), vehicle: Klucel (hydroxypropylcellulose) (HPC) 109 % of control

COc1cc2c[n+]3c4c(cccc4c2cc1OC)CC3
inactive: dose: 25.0 mg/kg/injection, schedule: Q01DX009 (ip), vehicle: water 108 % of control | dose: 50.0 mg/kg/injection, schedule: Q01DX009 (ip), vehicle: water 118 % of control | dose: 100.0 mg/kg/injection, schedule: Q01DX009 (ip), vehicle: water 114 % of control

CN1C(=O)n2c(nc3ccccc32)C(N=[N+]=[N-])(N=[N+]=[N-])C1=O (configuration not stated)
inactive: dose: 15.0 mg/kg/injection, schedule: Q01DX005 (ip), vehicle: saline with Tween-80 108 % of control | dose: 30.0 mg/kg/injection, schedule: Q01DX005 (ip), vehicle: saline with Tween-80 101 % of control | [9] 101 % of control and 110 % of control

O=c1[nH]c(=O)n(COCc2ccccc2)cc1F
inactive: dose: 25.0 mg/kg/injection, schedule: Q04DX003 (ip), vehicle: saline 98 % of control | dose: 50.0 mg/kg/injection, schedule: Q04DX003 (ip), vehicle: saline 98 % of control | dose: 100.0 mg/kg/injection, schedule: Q04DX003 (ip), vehicle: saline 98 % of control and 97 % of control | dose: 200.0 mg/kg/injection, schedule: Q04DX003 (ip), vehicle: saline 95 % of control | dose: 400.0 mg/kg/injection, schedule: Q04DX003 (ip), vehicle: saline 98 % of control

CCCCOC(=O)N(CCCl)N=O
inactive: dose: 1.25 mg/kg/injection, schedule: Q01DX009 (ip), vehicle: saline with Tween-80 119 % of control | dose: 2.5 mg/kg/injection, schedule: Q01DX009 (ip), vehicle: saline with Tween-80 108 % of control | dose: 5.0 mg/kg/injection, schedule: Q01DX009 (ip), vehicle: saline with Tween-80 98 % of control

CN(C)c1ccc(N=C2C=CC(=[N+](C)C)C=C2)cc1
inactive: dose: 3.13 mg/kg/injection, schedule: Q01DX009 (ip), vehicle: Klucel (hydroxypropylcellulose) (HPC) 90 % of control | dose: 6.25 mg/kg/injection, schedule: Q01DX009 (ip), vehicle: Klucel (hydroxypropylcellulose) (HPC) 93 % of control | dose: 12.5 mg/kg/injection, schedule: Q01DX009 (ip), vehicle: Klucel (hydroxypropylcellulose) (HPC) 101 % of control | dose: 25.0 mg/kg/injection, schedule: Q01DX009 (ip), vehicle: Klucel (hydroxypropylcellulose) (HPC) 114 % of control

Nc1cc([N+](=O)[O-])ccc1-c1ccc(NC(=O)CCNC=O)cc1
inactive: [12] 93 % of control | [13] 97 % of control | [14] 90 % of control | [15] 93 % of control | [16] 91 % of control

COC(=O)C(CCC1NCCc2c1[nH]c1ccccc21)(Sc1ccccc1)Sc1ccccc1 (configuration not stated)
inactive: [6] 108 % of control | [7] 105 % of control | [8] 103 % of control

From PubChem BioAssay AID330 (DTP/NCI, 2004)
